Results: PMC5609566, “Elucidation of antimicrobial activity and mechanism of action by N-substituted carbazole derivatives” (Bioorganic & Medicinal Chemistry Letters, 2017)
In brackets after ≈: the same amount, converted by molar mass.

Assays:
C. albicans H^+-ATPase = biological target: T1, C. albicans H^+-ATPase (Candida albicans, UniProt P28877); assay: Colorimetric ATPase assay (ATP hydrolysis), C. albicans membranes; format: biochemical; settings: pH 7, n = 3
T1 construct: endogenous in cells; host or cells: C. albicans culture grown in YPD; microsomal membrane preparation
T1 sequence (P28877 whole entry): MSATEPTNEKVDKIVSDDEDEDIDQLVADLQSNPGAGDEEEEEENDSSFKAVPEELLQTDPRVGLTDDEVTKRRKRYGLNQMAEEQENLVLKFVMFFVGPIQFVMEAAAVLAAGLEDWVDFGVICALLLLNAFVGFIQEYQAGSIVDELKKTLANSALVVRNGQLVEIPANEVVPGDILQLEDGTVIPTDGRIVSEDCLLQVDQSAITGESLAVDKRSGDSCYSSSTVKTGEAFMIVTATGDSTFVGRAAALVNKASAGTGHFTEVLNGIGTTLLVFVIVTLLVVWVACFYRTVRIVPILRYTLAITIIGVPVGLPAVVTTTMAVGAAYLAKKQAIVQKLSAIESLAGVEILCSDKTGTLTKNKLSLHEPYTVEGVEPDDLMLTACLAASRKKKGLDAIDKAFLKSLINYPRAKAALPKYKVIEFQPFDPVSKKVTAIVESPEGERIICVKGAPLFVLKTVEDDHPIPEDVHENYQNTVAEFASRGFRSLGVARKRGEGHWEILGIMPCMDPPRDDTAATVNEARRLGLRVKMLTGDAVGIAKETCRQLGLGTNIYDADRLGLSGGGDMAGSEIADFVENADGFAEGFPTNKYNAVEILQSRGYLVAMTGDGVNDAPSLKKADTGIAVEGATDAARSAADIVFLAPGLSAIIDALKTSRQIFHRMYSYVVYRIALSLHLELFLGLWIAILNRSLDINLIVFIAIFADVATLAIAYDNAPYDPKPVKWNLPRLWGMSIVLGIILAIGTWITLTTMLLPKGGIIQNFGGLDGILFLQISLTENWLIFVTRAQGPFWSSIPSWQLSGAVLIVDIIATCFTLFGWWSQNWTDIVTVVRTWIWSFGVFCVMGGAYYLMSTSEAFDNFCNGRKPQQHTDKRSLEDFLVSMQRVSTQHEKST
Description: (§1) To investigate the H^+-ATPase inhibitory effect of the compounds we isolated plasma membranes containing H^+-ATPase from S. cerevisiae and C. albicans cells.[15] Plasma membranes isolated from pig kidney as well as endoplasmic reticulum membranes from rabbit hind leg muscle were used to counter-screen compounds for activity against mammalian Na^+,K^+-ATPase and Ca^2+-ATPase, respectively. Prior to their use, fungal plasma membrane batches were validated by determining the maximum ATP hydrolysis activity, the pH optimum of the ATPase activity, and the sensitivity to inhibition by orthovanadate. ATPase activity was determined by a colorimetric assay that measures the amount of inorganic phosphate liberated over time, as described in Kjellerup et al., 2017.[15] Table 2, Table 3, Table 4 list the IC50 values obtained by measuring the concentration dependence of the ATPase activity for the fifteen carbazole compounds with each of the four membrane preparations.
(§2) Pma1-containing plasma membranes were prepared from S. cerevisiae RS72 yeast cells that had been transformed with the full-length cDNA of the S. cerevisiae plasma membrane H^+-ATPase isoform PMA1 under control of the PMA1 promoter, using the same procedure as described in Kongstad et al., 2014^1. For the preparation of C. albicans membranes, a 100 ml overnight culture grown in YPD (10 g/L yeast extract (BD, Sparks, MD), 20 g/L Bacto peptone (BD), 20 g/L D-(+)-glucose) was transferred to 1 L YPD and grown for a further 7 h at RT with agitation (150 rpm), followed by cell harvesting and subsequent membrane preparation using the same procedure as described in Kongstad et al., 2014^1. […] Rabbit sarcoplasmic reticulum membranes containing Sarco/Endoplasmic Reticulum Ca^2+ ATPase (SERCA) were kindly provided by Dr. Claus E. Olesen and Dr. Jesper V. Møller, Aarhus University and prepared as described in Andersen et al., 1985^2. Pig kidney Na^+,K^+-ATPase was kindly provided by Dr. Natalya Fedosova, Aarhus University and prepared as described in Klodos et al., 2002^3.
(§3) The compound libraries were purchased from Enamine Ltd, Ukraine and Chembridge Corp, USA. ATPase activity was determined by measuring the amount of liberated phosphate from ATP hydrolysis. […] Reactions were initiated by the addition of Na-ATP to a final concentration of 2.5 mM (Pma1 and Na^+,K^+-ATPase) or 5 mM (SERCA), followed by 30 minutes incubation at 30 °C. The amount of liberated phosphate was determined colorimetrically after addition of STOP solution (mixture of L-ascorbic acid, ammonium heptamolybdate tetrahydrate, and HCl to give final concentrations of 65 mM, 2.2 mM, and 189 mM, respectively) with 5 minutes incubation at room temperature (RT) followed by addition of arsenite solution (mixture of NaAsO2, sodium citrate dihydrate, and acetic acid to give final concentrations of 3.1 mM, 28 mM, and 141 mM, respectively). Absorption was measured at 860 nm after an additional 30 minutes incubation at RT.

Mammalian Ca^2+-ATPase = biological target: T2, Mammalian Ca^2+-ATPase (Oryctolagus cuniculus, UniProt P04191); assay: Colorimetric ATPase assay, rabbit sarcoplasmic reticulum membranes (SERCA); format: biochemical
T2 construct: from tissue; host or cells: rabbit hind leg muscle, sarcoplasmic reticulum membranes (gift, Aarhus University)
T2 sequence (P04191 1-994 isoform P04191-2): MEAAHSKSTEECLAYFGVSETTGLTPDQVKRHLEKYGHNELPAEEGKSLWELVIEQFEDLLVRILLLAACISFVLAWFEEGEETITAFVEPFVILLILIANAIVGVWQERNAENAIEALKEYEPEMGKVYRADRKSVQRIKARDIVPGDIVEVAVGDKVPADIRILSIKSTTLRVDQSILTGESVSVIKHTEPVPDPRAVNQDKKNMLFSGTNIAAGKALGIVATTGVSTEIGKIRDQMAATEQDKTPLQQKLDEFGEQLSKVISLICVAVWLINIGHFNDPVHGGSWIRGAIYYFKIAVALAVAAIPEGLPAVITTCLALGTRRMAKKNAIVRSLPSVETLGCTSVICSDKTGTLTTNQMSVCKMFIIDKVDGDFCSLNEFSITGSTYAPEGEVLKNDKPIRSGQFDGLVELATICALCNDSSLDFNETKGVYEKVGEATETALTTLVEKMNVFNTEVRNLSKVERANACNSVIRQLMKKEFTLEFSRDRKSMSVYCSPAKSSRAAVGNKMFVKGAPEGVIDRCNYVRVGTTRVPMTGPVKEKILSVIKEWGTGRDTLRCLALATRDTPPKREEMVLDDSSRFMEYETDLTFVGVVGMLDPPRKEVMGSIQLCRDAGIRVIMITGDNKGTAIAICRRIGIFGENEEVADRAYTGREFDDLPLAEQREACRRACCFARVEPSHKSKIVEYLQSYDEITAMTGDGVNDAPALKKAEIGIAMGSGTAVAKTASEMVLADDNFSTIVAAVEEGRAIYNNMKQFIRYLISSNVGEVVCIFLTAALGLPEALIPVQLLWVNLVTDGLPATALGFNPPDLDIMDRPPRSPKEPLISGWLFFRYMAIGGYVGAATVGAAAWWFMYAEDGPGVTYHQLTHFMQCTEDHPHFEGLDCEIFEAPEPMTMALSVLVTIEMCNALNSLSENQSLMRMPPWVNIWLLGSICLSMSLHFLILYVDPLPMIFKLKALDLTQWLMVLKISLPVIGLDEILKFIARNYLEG
Description: as §1, §2, §3

[1] = biological target: T3, Mammalian Na^+,K^+-ATPase (Sus scrofa, UniProt P05024); assay: Colorimetric ATPase assay, pig kidney membranes; format: biochemical; settings: for IC50: pH 7, n = 3, read-out: ATP hydrolysis IC50 Mammalian Na^+,K^+-ATPase
T3 construct: from tissue; host or cells: pig kidney plasma membranes (gift, Aarhus University; prepared per Klodos et al., 2002)
Description: as §1, §2, §3

Candida albicans SC5314 = assay: Fungal growth inhibition MIC (MFC); format: cell-based; settings: for MIC: Candida albicans SC5314, RPMI-1640; for MFC: Candida albicans SC5314, value in brackets
Description: (§4) We subsequently assessed the carbazole series for antifungal activity, as described in Kjellerup et al., 2017.[15] Table 2, Table 3, Table 4, Table 5 list the minimum inhibitory concentrations (MIC) and the minimum fungicidal concentrations (MFC) of the fifteen compounds tested against the yeasts Saccharomyces cerevisiae, Candida albicans, C. krusei, and two isolates of C. glabrata (a wild-type strain ATCC 90030 and a clinical azole-resistant isolate Cg003 with increased efflux pump expression[19]), and the molds Aspergillus fumigatus and A. flavus. MIC was defined as the lowest concentration inhibiting visual growth of the microorganism in RPMI-1640 media. […] However, in several cases antifungal activity against molds was minimal, Table 5.
(§5) Compound hits from the library screening were evaluated against baker yeast S. cerevisiae and C. albicans (ATCC 90028). The minimum inhibitory concentration (MIC) was defined as the lowest concentration inhibiting visual growth of the microorganism and this was determined in triplicate. Standard errors were typically less than 5%. MICs for synthesized compounds were determined on the following fungal isolates: Saccharomyces cerevisiae (ATCC 9763), Candida albicans (SC5314), Candida krusei (ATCC 6258), Candida glabrata (ATCC 90030), Aspergillus flavus (ATCC MYA-1005) and Aspergillus fumigatus (ATCC 13073), which were purchased from American Type Culture Collection, and C. glabrata strain Cg003, which was kindly provided by Julius Subik, Comenius University in Bratislava, Slovak Republic. Cg003 is a clinical isolate, characterized to be resistant to fluconazole and itraconazole due to overexpression of the multidrug resistance efflux pumps Cdr1p and Cdr2p^5. The fungal growth assay was performed as described in Kjellerup et al., 2017^6.

[2] = tested on: Candida glabrata ATCC 90030; assay: Fungal growth inhibition MIC (MFC); format: cell-based; settings: Nakaseomyces glabratus, ATCC90030, Candida glabrata ATCC 90030 (wild-type); for MIC: RPMI-1640; for MFC: value in brackets
Description: as §4, §5

Candida glabrata Cg003 = assay: Fungal growth inhibition MIC (MFC); format: cell-based; settings: Nakaseomyces glabratus, Candida glabrata Cg003 (clinical azole-resistant isolate); for MIC: RPMI-1640; for MFC: value in brackets
Description: as §4, §5

Candida krusei ATCC 6258 = assay: Fungal growth inhibition MIC (MFC); format: cell-based; settings: Pichia kudriavzevii, ATCC6258; for MIC: Candida krusei ATCC 6258, RPMI-1640; for MFC: Candida krusei ATCC 6258, value in brackets
Description: as §4, §5

[3] = tested on: Saccharomyces cerevisiae ATCC 9763; assay: Fungal growth inhibition MIC (MFC); format: cell-based; settings: ATCC9763; for MIC: Saccharomyces cerevisiae ATCC 9763, RPMI-1640; for MFC: Saccharomyces cerevisiae ATCC 9763, value in brackets
Description: as §4, §5

SMILES	IC50 (C. albicans H^+-ATPase) [µM]	IC50 (Mammalian Ca^2+-ATPase) [µM]	IC50 [1] [µM]	MIC (Candida albicans SC5314) [µM]	MFC (Candida albicans SC5314) [µM]	MIC [2] [µM]	MFC [2] [µM]	MIC (Candida glabrata Cg003) [µM]	MFC (Candida glabrata Cg003) [µM]	MIC (Candida krusei ATCC 6258) [µM]	MFC (Candida krusei ATCC 6258) [µM]	MIC [3] [µM]	MFC [3] [µM]	selectivity among the four ATPases ([1]; lower IC50 value on Na^+,K^+-ATPase)
CN1CCN(CCCn2c3ccc(Cl)cc3c3cc(Cl)ccc32)CC1 [Compound 16, 3,6-dichloro-9-(3-(4-methylpiperazin-1-yl)propyl)-9H-carbazole]	7.1 ± 0.5	23.2 ± 6.4	2.5 ± 0.6	24 (≈ 9.03 µg/mL)	24 (≈ 9.03 µg/mL)	7.5 (≈ 2.82 µg/mL)	7.5 (≈ 2.82 µg/mL)	7.5 (≈ 2.82 µg/mL)	7.5 (≈ 2.82 µg/mL)	7.5 (≈ 2.82 µg/mL)	7.5 (≈ 2.82 µg/mL)	2.4 (≈ 0.903 µg/mL)	2.4 (≈ 0.903 µg/mL)	
CN1CCN(CC(O)Cn2c3ccc(C#N)cc3c3cc(C#N)ccc32)CC1 (stereo not drawn) [Compound 12, 9-(2-hydroxy-3-(4-methylpiperazin-1-yl)propyl)-9H-carbazole-3,6-dicarbonitrile]	144 ± 14.7	92.7 ± 13.1	10.5 ± 1.4	> 75	> 75	> 75	> 75	> 75	> 75	> 75	> 75	> 75	> 75	pronounced selectivity towards Na^+,K^+-ATPase
